How the values were obtained:
Assay type in all cases: in vivo
Colletotricum lagenarium = test: Cucumber Anthracnose (COLLLA) whole-plant disease control test; conditions: Cucumis sativus, foliar; 200 ppm applied to foliage of cucumber; inoculated one day after treatment; read-out: COLLLA disease control
[1] = test system: Mycosphaerella graminicola=Septoria tritici; test: Speckled Leaf Blotch of Wheat (SEPTTR) whole-plant disease control test; conditions: Mycosphaerella, foliar, 75 ppm applied to foliage of wheat; read-out: SEPTTR disease control
[2] = test system: Puccinia recondita tritici; test: Leaf Rust of Wheat (PUCCRT) whole-plant disease control test; conditions: Puccinia recondita, foliar, 200 ppm applied to foliage of wheat; inoculated one day after treatment; read-out: PUCCRT disease control
Phytophthora infestans = test: whole plant or invertebrate; conditions: Phytophthora infestans, in Solanum lycopersicum, foliar, read-out: PHYTIN disease control, 200 ppm applied to foliage of tomato; inoculated one day after treatment
Leptosphaeria nodorum = test: Glume Blotch of Wheat (LEPTNO) whole-plant disease control test; conditions: Parastagonospora nodorum, foliar; 200 ppm applied to foliage of wheat; inoculated one day after treatment; read-out: LEPTNO disease control
Erysiphe cichoracaerum = test: Cucumber Powdery Mildew (ERYSCI) whole-plant disease control test; conditions: Erysiphe, foliar; 200 ppm applied to foliage of cucumber; inoculated one day after treatment; read-out: ERYSCI disease control
[3] = test system: Magnaporthe grisea=Pyricularia oryzae; test: whole plant or invertebrate; conditions: Pyricularia oryzae, foliar, read-out: PYRIOR disease control, 200 ppm applied to foliage of rice; inoculated one day after treatment

SMILES | pest or weed control at 200 ppm (Colletotricum lagenarium) [%] | pest or weed control at 75 ppm [1] [%] | pest or weed control at 200 ppm [2] [%] | pest or weed control at 200 ppm (Phytophthora infestans) [%] | pest or weed control at 200 ppm (Leptosphaeria nodorum) [%] | pest or weed control at 200 ppm (Erysiphe cichoracaerum) [%] | pest or weed control at 200 ppm [3] [%]
FC(F)(F)c1ccnc(Oc2ccc(CCNc3ncnc4scc(Cl)c34)cc2)c1 [Compound 12] | 50 to 79 | 50 to 79 | 80 to 100 | 50 to 79 | 80 to 100 | 80 to 100 | 80 to 100
N#Cc1ccnc(Oc2ccc(CCNc3ncnc4scc(Cl)c34)cc2)c1 [Compound 13] | 50 to 79 | 50 to 79 | 80 to 100 | 50 to 79 | 80 to 100 | 80 to 100 | 80 to 100
O=C(Oc1ccc(CCNc2ncnc3scc(Cl)c23)cc1)c1ccccn1 [Compound 14] | 0 to 49 | 0 to 49 | 80 to 100 | 0 to 49 | 50 to 79 | 0 to 49 | 80 to 100
O=C(Oc1ccc(CCNc2ncnc3scc(Cl)c23)cc1)c1ccc(Cl)nc1 [Compound 15] | 0 to 49 | 0 to 49 | 80 to 100 | 0 to 49 | 50 to 79 | 0 to 49 | 80 to 100
Clc1csc2ncnc(NCCc3ccc(Oc4ncc(Br)s4)cc3)c12 [Compound 16] | 0 to 49 | 80 to 100 | 80 to 100 | 80 to 100 | 0 to 49 | 50 to 79 | 80 to 100
Clc1csc2ncnc(NCCc3ccc(Oc4ncccn4)cc3)c12 [Compound 17] | 0 to 49 | 50 to 79 | 80 to 100 | 80 to 100 | 50 to 79 | 50 to 79 | 80 to 100
Clc1csc2ncnc(NCCc3ccc(Oc4ccccn4)cc3)c12 [Compound 18] | 0 to 49 | 50 to 79 | 80 to 100 | 80 to 100 | 0 to 49 | 80 to 100 | 80 to 100
[O-][n+]1ccccc1Oc1ccc(CCNc2ncnc3scc(Cl)c23)cc1 [Compound 19] | 0 to 49 | 50 to 79 | 80 to 100 | 80 to 100 | 0 to 49 | 50 to 79 | 80 to 100
NC(=O)c1ccc(Oc2ccc(CCNc3ncnc4scc(Cl)c34)cc2)nc1 [Compound 21] | 0 to 49 | 0 to 49 | 80 to 100 | 0 to 49 | 0 to 49 | 0 to 49 | 0 to 49
N#Cc1cc[n+]([O-])c(Oc2ccc(CCNc3ncnc4scc(Cl)c34)cc2)c1 [Compound 22] | 50 to 79 | 0 to 49 | 80 to 100 | 50 to 79 | 50 to 79 | 50 to 79 | 80 to 100
CCOC(=O)c1ccc(Oc2ccc(CCNc3ncnc4scc(Cl)c34)cc2)nc1 [Compound 23] | 0 to 49 | 0 to 49 | 80 to 100 | 50 to 79 | 0 to 49 | 0 to 49 | 50 to 79
O=Cc1ccc(Oc2ccc(CCNc3ncnc4scc(Cl)c34)cc2)nc1 [Compound 24] | 50 to 79 | 50 to 79 | 80 to 100 | 50 to 79 | 0 to 49 | 0 to 49 | 80 to 100
COc1nc(OC)nc(Oc2ccc(CCNc3ncnc4scc(Cl)c34)cc2)n1 [Compound 26] | 0 to 49 | 0 to 49 | 80 to 100 | 0 to 49 | 0 to 49 | 0 to 49 | 50 to 79
FC(F)(F)c1ccnc(Oc2ccc(CCNc3ncnc4scc(Cl)c34)cc2)n1 [Compound 27] | 50 to 79 | 50 to 79 | 80 to 100 | 50 to 79 | 0 to 49 | 80 to 100 | 80 to 100
N#Cc1cccnc1Oc1ccc(CCNc2ncnc3scc(Cl)c23)cc1 [Compound 28] | 50 to 79 | 50 to 79 | 80 to 100 | 0 to 49 | 50 to 79 | 0 to 49 | 50 to 79
N#Cc1ncc(F)cc1Oc1ccc(CCNc2ncnc3scc(Cl)c23)cc1 [Compound 29] | 50 to 79 | 50 to 79 | 80 to 100 | 0 to 49 | 0 to 49 | 0 to 49 | 50 to 79
N#Cc1ncc(Oc2ccc(CCNc3ncnc4scc(Cl)c34)cc2)cc1F [Compound 30] | 80 to 100 | 50 to 79 | 80 to 100 | 50 to 79 | 0 to 49 | 50 to 79 | 80 to 100
N#Cc1cccc(Oc2ccc(CCNc3ncnc4scc(Cl)c34)cc2)n1 [Compound 32] | 50 to 79 | 50 to 79 | 80 to 100 | 50 to 79 | 0 to 49 | 80 to 100 | 80 to 100
CN(C)NC(=O)c1ccc(Oc2ccc(CCNc3ncnc4scc(Cl)c34)cc2)nc1 [Compound 33, 6-{4-[2-(5-Chlorothieno[2,3-d]pyrimidin-4-ylamino)ethyl]phenoxy}nicotinic acid N′,N′-dimethylhydrazide] | 50 to 79 | 0 to 49 | 80 to 100 | 50 to 79 | 0 to 49 | 0 to 49 | 80 to 100
CO/N=C\c1ccc(Oc2ccc(CCNc3ncnc4scc(Cl)c34)cc2)nc1 [Compound 34, 6-{4-[2-(5-Chlorothieno[2,3-d]pyrimidin-4-ylamino)ethyl]phenoxy}pyridine-3-carbaldehyde O-methyloxime] | 80 to 100 | 50 to 79 | 80 to 100 | 0 to 49 | 0 to 49 | 80 to 100 | 80 to 100
Fc1cccc(Oc2ccc(CCNc3ncnc4scc(Cl)c34)cc2)n1 [Compound 36] | 50 to 79 | 50 to 79 | 80 to 100 | 0 to 49 | 0 to 49 | 80 to 100 | 80 to 100
Clc1cccc(Oc2ccc(CCNc3ncnc4scc(Cl)c34)cc2)n1 [Compound 37] | 80 to 100 | 50 to 79 | 80 to 100 | 0 to 49 | 0 to 49 | 80 to 100 | 80 to 100
Clc1csc2ncnc(NCCc3ccc(Oc4cnccn4)cc3)c12 [Compound 38] | 50 to 79 | 50 to 79 | 80 to 100 | 50 to 79 | 0 to 49 | 50 to 79 | 50 to 79
CC(=O)c1ccc(Oc2ccc(CCNc3ncnc4scc(Cl)c34)cc2)nc1 [Compound 39] | 0 to 49 | 0 to 49 | 80 to 100 | 80 to 100 | 0 to 49 | 50 to 79 | 80 to 100
N#Cc1ncc(Oc2ccc(CCNc3ncnc4scc(Cl)c34)cc2)cn1 [Compound 40] | 0 to 49 | 0 to 49 | 80 to 100 | 80 to 100 | 0 to 49 | 50 to 79 | 80 to 100
N#Cc1ccnc(Oc2ccc(CCNc3ncnc4scc(Cl)c34)cc2)n1 [Compound 41] | 0 to 49 | 0 to 49 | 80 to 100 | 80 to 100 | 0 to 49 | 50 to 79 | 80 to 100
